Laboratory results from publication PMC7835950 (Frontiers in Chemistry, 2021).

Legend:
[1] = molecular target: T1, OGDH (Rattus norvegicus, UniProt Q5XI78); assay: OGDH reaction (OG saturation) catalyzed by the enzyme preparation from rat heart; assay type: biochemical; design: the tissue fractions with the complexes enriched to a degree allowing for a robust detection of the enzymatic activities, have been used; from tissue; host or cells: rat heart
T1 sequence (Q5XI78 41-1023): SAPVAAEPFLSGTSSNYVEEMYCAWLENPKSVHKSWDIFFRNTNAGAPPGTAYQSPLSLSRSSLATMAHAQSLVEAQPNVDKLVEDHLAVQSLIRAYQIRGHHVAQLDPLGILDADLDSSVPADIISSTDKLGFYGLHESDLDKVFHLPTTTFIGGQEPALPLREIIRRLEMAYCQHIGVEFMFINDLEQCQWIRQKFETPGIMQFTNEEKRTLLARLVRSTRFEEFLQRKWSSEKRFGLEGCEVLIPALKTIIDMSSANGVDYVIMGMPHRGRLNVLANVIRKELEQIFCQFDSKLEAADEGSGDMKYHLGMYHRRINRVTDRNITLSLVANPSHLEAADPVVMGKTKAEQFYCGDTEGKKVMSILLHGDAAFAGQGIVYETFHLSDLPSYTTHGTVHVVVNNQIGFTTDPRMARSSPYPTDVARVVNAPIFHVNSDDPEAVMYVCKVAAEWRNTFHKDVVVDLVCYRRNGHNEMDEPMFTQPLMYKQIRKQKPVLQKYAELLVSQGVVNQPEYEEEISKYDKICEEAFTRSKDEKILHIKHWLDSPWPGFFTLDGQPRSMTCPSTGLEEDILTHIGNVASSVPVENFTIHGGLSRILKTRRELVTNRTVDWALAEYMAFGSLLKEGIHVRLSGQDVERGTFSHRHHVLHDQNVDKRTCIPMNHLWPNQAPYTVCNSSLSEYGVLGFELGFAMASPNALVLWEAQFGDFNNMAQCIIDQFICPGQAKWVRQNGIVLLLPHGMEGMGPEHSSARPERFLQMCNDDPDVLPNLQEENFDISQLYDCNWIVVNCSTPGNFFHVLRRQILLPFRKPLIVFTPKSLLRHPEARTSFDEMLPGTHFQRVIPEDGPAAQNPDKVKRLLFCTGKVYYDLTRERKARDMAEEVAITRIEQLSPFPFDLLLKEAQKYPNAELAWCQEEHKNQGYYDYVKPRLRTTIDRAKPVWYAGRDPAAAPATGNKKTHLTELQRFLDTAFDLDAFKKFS
T1 sequence (Q01205 69-454 partner): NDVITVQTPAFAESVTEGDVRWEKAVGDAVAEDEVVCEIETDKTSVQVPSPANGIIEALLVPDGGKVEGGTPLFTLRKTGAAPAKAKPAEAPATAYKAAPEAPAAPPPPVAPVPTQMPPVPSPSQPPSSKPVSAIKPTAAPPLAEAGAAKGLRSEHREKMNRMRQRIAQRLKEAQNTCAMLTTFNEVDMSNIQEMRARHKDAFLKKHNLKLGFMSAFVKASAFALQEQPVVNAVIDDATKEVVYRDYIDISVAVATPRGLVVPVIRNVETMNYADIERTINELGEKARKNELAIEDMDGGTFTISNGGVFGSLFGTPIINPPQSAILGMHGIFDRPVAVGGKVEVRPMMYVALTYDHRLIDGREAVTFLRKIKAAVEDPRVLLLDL
T1 sequence (Q6P6R2 36-509 partner): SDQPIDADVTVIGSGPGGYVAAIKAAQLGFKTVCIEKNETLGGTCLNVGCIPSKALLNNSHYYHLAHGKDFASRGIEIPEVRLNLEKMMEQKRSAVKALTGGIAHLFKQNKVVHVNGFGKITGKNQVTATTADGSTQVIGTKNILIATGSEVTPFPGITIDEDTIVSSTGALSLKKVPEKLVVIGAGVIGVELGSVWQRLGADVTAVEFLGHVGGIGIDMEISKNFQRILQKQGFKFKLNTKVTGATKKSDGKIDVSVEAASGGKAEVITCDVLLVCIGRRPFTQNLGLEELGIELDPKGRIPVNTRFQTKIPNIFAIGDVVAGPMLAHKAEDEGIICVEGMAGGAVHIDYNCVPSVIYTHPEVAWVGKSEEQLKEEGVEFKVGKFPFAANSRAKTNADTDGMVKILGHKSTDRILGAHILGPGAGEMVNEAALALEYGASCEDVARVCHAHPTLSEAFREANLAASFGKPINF
Protocol: (§1) Reactions were started by addition of the enzyme preparations to the assay media. The amount of enzyme preparations (0.074 mg protein for the preparation from liver and 0.023 mg protein for the preparation from heart) were chosen to induce the lowest reliably measured reaction rate (ΔA340 = 0.001/min) at 0.01 mM OA without the phosphonates.
(§2) Reaction rates were calculated from linear parts of the product accumulation curves (up to 10 min, dependent on the reaction rate), excluding the initial region, where mixing the reagents and solubilization of the preparation affected the optical density.
(§3) The former equation describes one type of the active sites. […] The assumption was based on the presence of the two enzymes, OGDH and OADH, in the employed preparations.
(§4) The Km and Amax values obtained in independent experiments using the non-linear and linear regression analyses of the experimental data, were averaged and presented as Mean ± Standard Error of Mean.
(§5) The values of Ki were determined as the ratio of the corresponding Intercepts to the Slopes. In the two-site model, the Ki(1) and Ki(2) were calculated separately from the linear approximations of Km,1eff/Amax,1eff vs. [I] and Km,2eff/Amax,2eff vs. [I] dependences, respectively. […] The Ki values obtained from the non-linear and linear regression analyses of the experimental data were averaged and presented as Mean ± Standard Error of Mean.

[2] = molecular target: T1, OGDH; assay: OGDH reaction (OG saturation) catalyzed by the enzyme preparation from rat liver; assay type: biochemical; design: the tissue fractions with the complexes enriched to a degree allowing for a robust detection of the enzymatic activities, have been used; from tissue
Protocol: as §1, §2, §3, §4, §5

[3] = OGDH reaction, heart, Eadie-Hofstee, read-out: Ki, EH
[4] = OGDH reaction, heart, Lineweaver-Burk, read-out: Ki, LB
[5] = OGDH reaction, heart, Michaelis-Menten approximation, read-out: Ki, MM
[6] = OGDH reaction, heart, average of MM, LB, EH, read-out: Ki, Average
[7] = [I] 10 µM, OGDH reaction, heart
[8] = [I] 50 µM, OGDH reaction, heart
[9] = [I] 200 µM, OGDH reaction, heart
[10] = [I] 1000 µM, OGDH reaction, heart
[11] = Eadie-Hofstee, read-out: Ki, EH
[12] = Lineweaver-Burk, read-out: Ki, LB
[13] = Michaelis-Menten approximation, read-out: Ki, MM
[14] = average of MM, LB, EH, read-out: Ki, Average

Compound | Ki [1, 3] | Ki [1, 4] | Ki [1, 5] | Ki [1, 6] | Amax ([1]; [I] 2 µM, OGDH reaction, heart) | Amax [1, 7] | Amax [1, 8] | Amax [1, 9] | Amax [1, 10] | Ki [2, 11] | Ki [2, 12] | Ki [2, 13] | Amax ([2]; [I] 2 µM) | Amax ([2]; [I] 10 µM) | Amax ([2]; [I] 50 µM) | Amax ([2]; [I] 200 µM) | Amax ([2]; [I] 1000 µM) | Ki [2, 14] | also measured
O=C(O)CCCCC(=O)P(=O)(O)O [AP, adipoyl phosphonate] | 1760 ± 77 µM | 2140 ± 517 µM | 2490 ± 341 µM | 2130 ± 211 µM | 0.72 ± 0.01 µmol/min per mg of protein | 0.62 ± 0.01 µmol/min per mg of protein | 0.67 ± 0.01 µmol/min per mg of protein | 0.70 ± 0.02 µmol/min per mg of protein | 0.63 ± 0.03 µmol/min per mg of protein | 326 ± 19 µM | 361 ± 36 µM | 405 ± 11 µM | 0.042 ± 0.001 µmol/min per mg of protein | 0.042 ± 0.001 µmol/min per mg of protein | 0.042 ± 0.001 µmol/min per mg of protein | 0.045 ± 0.001 µmol/min per mg of protein | 0.049 ± 0.001 µmol/min per mg of protein | 364 ± 23 µM | Amax ([1]; [I] 0.5 µM, OGDH reaction, heart): 0.70 ± 0.02 µmol/min per mg of protein; Amax ([1]; [I] 5000 µM, OGDH reaction, heart): 0.61 ± 0.04 µmol/min per mg of protein; Amax ([2]; [I] 0.5 µM): 0.040 ± 0.001 µmol/min per mg of protein; Amax ([2]; [I] 5000 µM): 0.039 ± 0.004 µmol/min per mg of protein
O=C(O)CCC(=O)P(=O)(O)O [SP, succinyl phosphonate] | 15 ± 1 µM | – | – | – | – | 0.72 ± 0.01 µmol/min per mg of protein | 0.71 ± 0.02 µmol/min per mg of protein | 0.45 ± 0.11 µmol/min per mg of protein | 0.54 ± 0.07 µmol/min per mg of protein | – | – | – | – | 0.043 ± 0.001 µmol/min per mg of protein | 0.041 ± 0.001 µmol/min per mg of protein | 0.038 ± 0.002 µmol/min per mg of protein | 0.019 ± 0.002 µmol/min per mg of protein | – | Ki ([1]; Ki, Average, OGDH reaction, heart, average of MM, LB, EH): 16 ± 2 µM; Ki ([1]; Ki, LB, OGDH reaction, heart, Lineweaver-Burk): 13 ± 2 µM; Ki ([1]; Ki, MM, OGDH reaction, heart, Michaelis-Menten approximation): 20 ± 1 µM; Ki ([1]; rounded from Table 2 (heart and liver preparations), read-out: Ki as OGDH inhibitor (order of magnitude)): 10 µM; Ki ([2]; Ki, Average, average of MM, LB, EH): 7.4 ± 1.4 µM; Ki ([2]; Ki, EH, Eadie-Hofstee): 7.7 ± 0.1 µM; Ki ([2]; Ki, LB, Lineweaver-Burk): 4.9 ± 0.1 µM; Ki ([2]; Ki, MM, Michaelis-Menten approximation): 9.6 ± 0.2 µM
O=C(O)CCCC(=O)P(=O)(O)O [GP, glutaryl phosphonate] | 49 ± 8 µM | 12 ± 1 µM | 39 ± 2 µM | 33 ± 11 µM | 0.67 ± 0.02 µmol/min per mg of protein | 0.76 ± 0.02 µmol/min per mg of protein | 0.79 ± 0.03 µmol/min per mg of protein | 0.86 ± 0.05 µmol/min per mg of protein | – | 6.2 ± 0.1 µM | 5.6 ± 0.1 µM | 7.3 ± 0.4 µM | 0.045 ± 0.001 µmol/min per mg of protein | 0.045 ± 0.001 µmol/min per mg of protein | 0.044 ± 0.001 µmol/min per mg of protein | 0.066 ± 0.011 µmol/min per mg of protein | – | 6.3 ± 0.5 µM | –
